{"source": "patent US20220387457A1", "about": "(Qlaris Bio, Inc., priority 2020, published 2022)", "key": {"[1]": {"experiment": "Plasma pharmacokinetics of CKLP1 and levcromakalim after topical dosing in hound dogs", "assay_type": "in vivo, hound dog", "protocol": "To assess the pharmacokinetic parameters, hound dogs (n=3) were treated with 50 μL topical ocular administration of 10 mM CKLP1 or vehicle (PBS) (n=2) in both eyes, once daily for eight days. Blood (approximately 3 mL) was collected in heparin blood collection tubes at eight different time points (5 minutes, 15 minutes, 30 minutes, 60 minutes, 2 hours, 4 hours, 8 hours and 24 hours) following treatment on days 1, 4 and 8. Plasma was separated from the blood by centrifugation at 2000 rpm for 5 minutes.\nImmediately prior to analysis, tissues were thawed and their weight was measured. PBS was added at double the tissue volume homogenized in a rotor stator homogenizer for 30 seconds. […] Detection was accomplished using positive electrospray ionization with multiple-reaction monitoring (MRM). […] Data were acquired and analyzed using Waters MassLynx v4.1 software."}, "[2]": {"experiment": "Toxicokinetics after escalating intravenous doses of CKLP1 in beagles", "assay_type": "in vivo, beagle dog", "settings": "beagle, dog, in vivo, iv", "protocol": "Two beagles (one male and one female) were intravenously injected with escalating doses of CKPL1 (0.05 mg/kg, 0.5 mg/kg, 1.5 mg/kg, 3 mg/kg, and 5 mg/kg) to assess the toxicity of CKLP1. The injection was done through the cephalic vein and CKLP1 was administered in a phosphate buffered saline solution ((0.096% sodium phosphate dibasic, 0.089% sodium dihydrogen orthophosphate monohydrate, 0.83% sodium chloride) pH 6.5±0.1 in sterile water for injection USP). The dosing schedule is shown below in Table 3.\nThe following parameters and endpoints were evaluated: mortality, clinical observations, body and organ weights, and food consumption. Bioanalytical samples for toxicokinetic parameters (for both CKLP1 and leveromakalim) were collected after each dose level (days 1, 3, 8, 10, and 14) at predose, 1, 3, 6, 8, and 24 hours postdose. Animals were released from the study after completion of the bioanalytical sample collection schedule.\nToxicokinetics (TK) were determined based on the individual exposures for each animal on each sampled study day (days 1, 3, 8, 10, and 14). […] Predose samples had no quantifiable exposure in any animal on any day, with the exception of the female dog on day 10. The predose concentration for the female dog on day 10 was excluded from the TK analysis in order to allow for estimation of the IV C0."}, "[3]": {"settings": "hound, dog, plasma, topical or ocular, 10 mM CKLP1, 50 µL in each of both eyes, levcromakalim after topical 10 mM CKLP1 once daily, Day 1"}, "[4]": {"settings": "hound, dog, plasma, topical or ocular, 10 mM CKLP1, 50 µL in each of both eyes, levcromakalim after topical 10 mM CKLP1 once daily, Day 4"}, "[5]": {"settings": "hound, dog, plasma, topical or ocular, 10 mM CKLP1, 50 µL in each of both eyes, levcromakalim after topical 10 mM CKLP1 once daily, Day 8"}, "[6]": {"settings": "levcromakalim after topical 10 mM CKLP1 once daily, Day 1"}, "[7]": {"settings": "levcromakalim after topical 10 mM CKLP1 once daily, Day 4"}, "[8]": {"settings": "levcromakalim after topical 10 mM CKLP1 once daily, Day 8"}}}
{"smiles": "CC1(C)Oc2ccc(C#N)cc2[C@@H](N2CCCC2=O)[C@@H]1O", "note": "[Levcromakalim, levcromakalim, reference compound]", "values": [{"measurement": "Maximum concentration of levcromakalim in plasma", "setting": "[1]; after topical 10 mM CKLP1", "result": "1.2 ± 0.2", "unit": "ng/mL"}, {"measurement": "concentration of levcromakalim found in plasma", "setting": "[1]; after topical CKLP1", "result": 1, "unit": "ng/mL"}, {"measurement": "AUC", "setting": "[1]; hound, dog, plasma, topical or ocular, 10 mM", "result": 0.00388, "unit": "µg·h/mL"}, {"measurement": "AUC(0-t)", "setting": "[1]; [3]", "result": 0.00509, "unit": "µg·h/mL"}, {"measurement": "Cmax", "setting": "[1]; [3]", "result": 1.3, "unit": "ng/mL"}, {"measurement": "Tmax", "setting": "[1]; hound, dog, plasma, topical or ocular, 10 mM CKLP1, 50 µL in each of both eyes, levcromakalim after topical 10 mM CKLP1 once daily, Day 1, read-out: Tmax (converted)", "result": 2, "unit": "h"}, {"measurement": "AUC(0-t)", "setting": "[1]; [4]", "result": 0.0063, "unit": "µg·h/mL"}, {"measurement": "Cmax", "setting": "[1]; [4]", "result": 1.4, "unit": "ng/mL"}, {"measurement": "Tmax", "setting": "[1]; hound, dog, plasma, topical or ocular, 10 mM CKLP1, 50 µL in each of both eyes, levcromakalim after topical 10 mM CKLP1 once daily, Day 4, read-out: Tmax (converted)", "result": 2, "unit": "h"}, {"measurement": "AUC(0-t)", "setting": "[1]; [5]", "result": 0.00267, "unit": "µg·h/mL"}, {"measurement": "Cmax", "setting": "[1]; [5]", "result": 1, "unit": "ng/mL"}, {"measurement": "Tmax", "setting": "[1]; hound, dog, plasma, topical or ocular, 10 mM CKLP1, 50 µL in each of both eyes, levcromakalim after topical 10 mM CKLP1 once daily, Day 8, read-out: Tmax (converted)", "result": 2, "unit": "h"}, {"measurement": "half-life", "setting": "[1]; hound, dog, plasma, topical or ocular, 10 mM, levcromakalim after topical 10 mM CKLP1 once daily, Day 1", "result": 1.24, "unit": "h"}, {"measurement": "half-life", "setting": "[1]; hound, dog, plasma, topical or ocular, 10 mM, levcromakalim after topical 10 mM CKLP1 once daily, Day 4", "result": 1.46, "unit": "h"}, {"measurement": "half-life", "setting": "[1]; hound, dog, plasma, topical or ocular, 10 mM, levcromakalim after topical 10 mM CKLP1 once daily, Day 8", "result": 2.11, "unit": "h"}, {"measurement": "Tmax", "setting": "[1]; hound, dog, plasma, topical or ocular, 10 mM, time of maximum concentration (Tmax) of levcromakalim, after topical 10 mM CKLP1", "result": "~2", "unit": "h"}, {"measurement": "half-life", "setting": "[1]; hound, dog, plasma, topical, 10 mM, as stated in the summary", "result": 2, "unit": "h"}, {"measurement": "Clast", "setting": "[1]; [6]", "result": 0.1, "unit": "ng/mL"}, {"measurement": "Tlast", "setting": "[1]; [6]", "result": 480, "unit": "min"}, {"measurement": "Clast", "setting": "[1]; [7]", "result": 0.1, "unit": "ng/mL"}, {"measurement": "Tlast", "setting": "[1]; [7]", "result": 480, "unit": "min"}, {"measurement": "Clast", "setting": "[1]; [8]", "result": 0.5, "unit": "ng/mL"}, {"measurement": "Tlast", "setting": "[1]; [8]", "result": 240, "unit": "min"}, {"measurement": "AUC(0-t)", "setting": "[2]; both sexes, 3 mg/kg, read-out: AUCTlast at MTD, sex-combined", "result": 0.431, "unit": "µg·h/mL"}, {"measurement": "Cmax", "setting": "[2]; both sexes, 3 mg/kg, read-out: Cmax at MTD, sex-combined", "result": 35.5, "unit": "ng/mL"}, {"measurement": "AUCTlast", "setting": "[2]; female, 0.5 mg/kg", "result": 0.0813, "unit": "µg·h/mL"}, {"measurement": "T1/2", "setting": "[2]; female, 0.5 mg/kg", "result": 10.3, "unit": "h"}, {"measurement": "AUC(0-inf)", "setting": "[2]; female, 1.5 mg/kg", "result": 0.272, "unit": "µg·h/mL"}, {"measurement": "AUCTlast", "setting": "[2]; female, 1.5 mg/kg", "result": 0.241, "unit": "µg·h/mL"}, {"measurement": "Cmax", "setting": "[2]; female, 1.5 mg/kg", "result": 15.6, "unit": "ng/mL"}, {"measurement": "T1/2", "setting": "[2]; female, 1.5 mg/kg", "result": 7.58, "unit": "h"}, {"measurement": "Tmax", "setting": "[2]; female, 1.5 mg/kg", "result": 3.00, "unit": "h"}, {"measurement": "AUC(0-inf)", "setting": "[2]; female, 3 mg/kg", "result": 0.404, "unit": "µg·h/mL"}, {"measurement": "AUCTlast", "setting": "[2]; female, 3 mg/kg", "result": 0.386, "unit": "µg·h/mL"}, {"measurement": "Cmax", "setting": "[2]; female, 3 mg/kg", "result": 28.3, "unit": "ng/mL"}, {"measurement": "T1/2", "setting": "[2]; female, 3 mg/kg", "result": 5.07, "unit": "h"}, {"measurement": "Tmax", "setting": "[2]; female, 3 mg/kg", "result": 6.00, "unit": "h"}, {"measurement": "AUCTlast", "setting": "[2]; female, 5 mg/kg", "result": 1.04, "unit": "µg·h/mL"}, {"measurement": "T1/2", "setting": "[2]; female, 5 mg/kg", "result": 7.82, "unit": "h"}, {"measurement": "AUCTlast", "setting": "[2]; male, 0.05 mg/kg", "result": 0.00504, "unit": "µg·h/mL"}, {"measurement": "T1/2", "setting": "[2]; male, 0.05 mg/kg", "result": 9.66, "unit": "h"}, {"measurement": "AUCTlast", "setting": "[2]; male, 0.5 mg/kg", "result": 0.0455, "unit": "µg·h/mL"}, {"measurement": "T1/2", "setting": "[2]; male, 0.5 mg/kg", "result": 6.89, "unit": "h"}, {"measurement": "AUC(0-inf)", "setting": "[2]; male, 1.5 mg/kg", "result": 0.192, "unit": "µg·h/mL"}, {"measurement": "AUCTlast", "setting": "[2]; male, 1.5 mg/kg", "result": 0.183, "unit": "µg·h/mL"}, {"measurement": "Cmax", "setting": "[2]; male, 1.5 mg/kg", "result": 18.0, "unit": "ng/mL"}, {"measurement": "T1/2", "setting": "[2]; male, 1.5 mg/kg", "result": 5.27, "unit": "h"}, {"measurement": "Tmax", "setting": "[2]; male, 1.5 mg/kg", "result": 1.00, "unit": "h"}, {"measurement": "AUC(0-inf)", "setting": "[2]; male, 3 mg/kg", "result": 0.518, "unit": "µg·h/mL"}, {"measurement": "AUCTlast", "setting": "[2]; male, 3 mg/kg", "result": 0.476, "unit": "µg·h/mL"}, {"measurement": "Cmax", "setting": "[2]; male, 3 mg/kg", "result": 42.7, "unit": "ng/mL"}, {"measurement": "T1/2", "setting": "[2]; male, 3 mg/kg", "result": 6.48, "unit": "h"}, {"measurement": "Tmax", "setting": "[2]; male, 3 mg/kg", "result": 1.00, "unit": "h"}, {"measurement": "AUCTlast", "setting": "[2]; male, 5 mg/kg", "result": 0.741, "unit": "µg·h/mL"}, {"measurement": "T1/2", "setting": "[2]; male, 5 mg/kg", "result": 7.67, "unit": "h"}]}
